Consider 12 molecules from patent US10336701B2, “Pyridin-2-one derivatives of formula (II) useful as EP3 receptor antagonists” (Janssen Pharmaceutica NV, priority 2017, dated 2019).

Assay [1] deals with T1, EP3 receptor (Homo sapiens, UniProt P43115).
T1 construct: purchased Millipore HTS092M
T1 sequence (P43115 1-390): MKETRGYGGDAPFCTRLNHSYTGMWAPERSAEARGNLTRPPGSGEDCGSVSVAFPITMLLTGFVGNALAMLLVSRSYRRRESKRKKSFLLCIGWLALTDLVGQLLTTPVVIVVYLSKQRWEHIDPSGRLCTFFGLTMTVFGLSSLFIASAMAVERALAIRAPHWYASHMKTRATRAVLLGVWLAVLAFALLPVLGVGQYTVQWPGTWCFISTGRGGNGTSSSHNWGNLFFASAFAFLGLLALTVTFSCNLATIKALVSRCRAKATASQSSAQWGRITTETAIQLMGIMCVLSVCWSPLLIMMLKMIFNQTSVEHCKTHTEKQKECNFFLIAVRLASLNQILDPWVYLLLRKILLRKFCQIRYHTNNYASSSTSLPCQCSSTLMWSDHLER
As to the kind of experiment: CHO cell cAMP assay (forskolin and sulprostone stimulated, HTRF). In kind it is cell-based. The settings on record: CHO cells; sulprostone 700 nM (EC80) and FSK 2 μM (EC70), 37° C. for 30 minutes; read-out: CHO_cAMP IC50. (In general: Changes in cAMP serve as a functional read-out for many G protein-coupled receptors.)

For assay [2], the target named is T1, EP3 receptor. As to the kind of experiment: [3H]-PGE2 binding assay (EP3 competition binding). The settings on record: read-out: [3H]-PGE2 Binding Ki. The gist of the method:
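Scintillation-bead competition binding with EP3 membranes (2 μg/well), 2 nM [3H]-PGE2, 0.1% DMSO, in 50 mM Tris, 10 mM MgCl2, 1 mM EDTA, pH 7.4.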

As a reminder, the IC50 is the concentration that inhibits the measured activity by half. The term Ki denotes a dissociation constant, usually derived from enzyme kinetics or from competition with a known ligand.

Structures are written as SMILES.

On to `CC(C)C1(c2ccc(-c3ccc4cccc(F)c4c3)[nH]c2=O)N=C(NC#N)NC1=O` (stereo not drawn) [compound 236, N-(4-(6-(8-fluoronaphthalen-2-yl)-2-oxo-1,2-dihydropyridin-3-yl)-4-isopropyl-5-oxo-4,5-dihydro-1H-imidazol-2-yl)cyanamide], for which the 50% inhibitory concentration (IC50) at EP3 receptor [1] was determined as 6 nM. Further, the inhibition constant (Ki) at EP3 receptor [2] was 2 nM.

Consider `CC(C)/C(=C1/OC(=O)NC1=O)c1ccc(-c2ccc3cccc(F)c3c2)[nH]c1=O` [Compound #303, (Z)-5-(1-(6-(8-fluoronaphthalen-2-yl)-2-oxo-1,2-dihydropyridin-3-yl)-2-methylpropylidene)oxazolidine-2,4-dione], for which the half-inhibitory concentration (IC50) at EP3 receptor [1] came out at 1280 nM. The Ki on EP3 receptor [2] stood at 14 nM.

In the case of `CCn1ncc2c(F)cc(-c3ccc(C(/C=C4\CCNC4=O)(CC)CC)c(=O)[nH]3)cc21` [compound 13, (E)-6-(1-ethyl-4-fluoro-1H-indazol-6-yl)-3-(3-((2-oxopyrrolidin-3-ylidene)methyl)pentan-3-yl)pyridin-2(1H)-one], on EP3 receptor [1], the concentration for half-maximal inhibition (IC50) is 22 nM. On EP3 receptor [2], the Ki stood at 3 nM.

For the molecule `CC(C)C(NC(=O)NCCN(C)C)c1ccc(-c2ccc3cccc(F)c3c2)[nH]c1=O` (stereo not drawn) [compound 266, 1-(2-(dimethylamino)ethyl)-3-(1-(6-(8-fluoronaphthalen-2-yl)-2-oxo-1,2-dihydropyridin-3-yl)-2-methylpropyl)urea], the half-inhibitory concentration (IC50) on EP3 receptor [1] stood at 736 nM. The Ki on EP3 receptor [2] is 28 nM.

Regarding `CCn1ncc2c(F)cc(-c3ccc(C(CC)(CC)CC4CCNC4=O)c(=O)[nH]3)cc21` (stereo not drawn) [compound 40, 6-(1-ethyl-4-fluoro-1H-indazol-6-yl)-3-(3-((2-oxopyrrolidin-3-yl)methyl)pentan-3-yl)pyridin-2(1H)-one], the half-maximal inhibitory concentration (IC50) on EP3 receptor [1] stood at 44 nM. On EP3 receptor [2], the inhibition constant Ki is 11 nM.

With `CCn1ncc2c(F)cc(-c3ccc(C4CCCN(S(=O)(=O)C(C)C)C4)c(=O)[nH]3)cc21` (stereo not drawn) [compound 211, 6-(1-ethyl-4-fluoro-1H-indazol-6-yl)-3-(1-(isopropylsulfonyl)piperidin-3-yl)pyridin-2(1H)-one], the IC50 on EP3 receptor [1] amounted to 37 nM. In addition, at EP3 receptor [2], the inhibitory constant (Ki) amounted to 5 nM.

Regarding `N#CC1(OC(N)=O)CCCC(c2ccc(-c3ccc4ccccc4c3)[nH]c2=O)C1` (stereo not drawn) [compound 185, 1-cyano-3-(6-(naphthalen-2-yl)-2-oxo-1,2-dihydropyridin-3-yl)cyclohexyl carbamate], at EP3 receptor [1], the IC50 amounted to 314 nM. On EP3 receptor [2], the inhibition constant Ki turned out to be 31 nM.

In the case of `CC1(c2ccc(-c3ccc4ccccc4c3)[nH]c2=O)CNC(N)=N1` (stereo not drawn) [compound 287, 3-(2-amino-4-methyl-4,5-dihydro-1H-imidazol-4-yl)-6-(naphthalen-2-yl)pyridin-2(1H)-one], the IC50 on EP3 receptor [1] is 8680 nM. The Ki on EP3 receptor [2] was determined as 157 nM.

Consider `CC(C)C(O)(CC(N)=O)c1ccc(-c2ccc3cccc(F)c3c2)[nH]c1=O` (stereo not drawn) [compound 255, 3-(6-(8-fluoronaphthalen-2-yl)-2-oxo-1,2-dihydropyridin-3-yl)-3-hydroxy-4-methylpentanamide], for which the IC50 at EP3 receptor [1] was 115 nM. In addition, at EP3 receptor [2], the Ki is 9 nM.

Turning to `CCN1C(=O)COc2c(F)cc(-c3ccc(C(CN4CCS(=O)(=O)CC4)C(C)C)c(=O)[nH]3)cc21` (stereo not drawn) [Compound #128, 4-{2-[6-(4-ethyl-8-fluoro-3-oxo-2H-1,4-benzoxazin-6-yl)-2-oxo-1H-pyridin-3-yl]-3-methylbutyl},4-thiomorpholine-1,1-dione], the IC50 on EP3 receptor [1] amounted to 18000 nM. In addition, the inhibition constant (Ki) on EP3 receptor [2] was 154 nM.

On to `CC(C)C(C(=O)NCCOCCN(C)C)c1ccc(-c2ccc3cccc(F)c3c2)[nH]c1=O` (stereo not drawn) [compound 233, N-(2-(2-(dimethylamino)ethoxy)ethyl)-2-(6-(8-fluoronaphthalen-2-yl)-2-oxo-1,2-dihydropyridin-3-yl)-3-methylbutanamide], for which the concentration for half-maximal inhibition (IC50) on EP3 receptor [1] stood at 325 nM. The Ki at EP3 receptor [2] was determined as 15 nM.

Regarding `CCn1ncc2c(F)cc(-c3ccc(C(/C=C4\CCNC4=O)(CC)CC)c(=O)[nH]3)cc21` [compound 16, 6-(1-ethyl-4-fluoro-indazol-6-yl)-3-[1-ethyl-1-[(E)-(2-oxopyrrolidin-3-ylidene)methyl]propyl]-1H-pyridin-2-one], at EP3 receptor [1], the 50% inhibitory concentration (IC50) amounted to 17 nM. The Ki at EP3 receptor [2] came out at 6 nM.
